Drawing on US20230203044A1, “PYRAZOLO[1,5-D][1,2,4]TRIAZINE-5(4H)-ACETAMIDES AS INHIBITORS OF THE NLRP3 INFLAMMASOME” (JANSSEN PHARMACEUTICA NV, priority 2020, published 2023), this text covers IC50 and EC50 for 20 compounds.

A value given as a limit tells only on which side of the number the result lay.

The subject of experiment [1] is NLRP3 inflammasome. The experiment is described as follows: PBMC assay: IL-1β in LPS-stimulated human PBMCs (MSD). The class given is cell-based. The conditions noted are these: human PBMCs, 100 ng/ml LPS for 6 hrs, IL-1β in supernatant via MSD, read-out: IL1β IC50. An outline of the steps:
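Human PBMCs from healthy donors, Ficoll-isolated and cryopreserved, were plated at 7.5×10^4 cells/well in RPMI/10% FBS for 30 min at 37 °C. Cells were then stimulated with 100 ng/ml LPS (final) for 6 h. IL-1β and TNF in supernatants were quantified by MSD immunoassay.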

Experiment [2] deals with TNF. The experiment is described as follows: PBMC assay: TNF cytokine levels in LPS-stimulated human PBMCs (MSD). It counts as cell-based. The conditions noted are these: 100 ng/ml LPS for 6 hrs, TNF in supernatant via MSD. An outline of the steps: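 Cryopreserved healthy-donor human PBMCs (7.5×10^4 cells/well, RPMI + 10% FBS) were preincubated with 1:3 serially diluted compounds for 30 min at 37 °C. They were then stimulated with 100 ng/ml LPS (final) for 6 h. Supernatant TNF was measured by MSD, and EC50 values were derived.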

What is called IC50 is the concentration needed to halve the response being measured. What is called EC50 is the concentration at which the effect is half-maximal. A high value points to a need for much substance. As to `CC(C)c1nn(CC(=O)N[C@H]2C[C@@](C)(O)C2)c(=O)c2c(N)c(C3CC3)nn12` [Final Cpd 181, 2-(3-amino-2-cyclopropyl-7-isopropyl-4-oxopyrazolo[1,5-d][1,2,4]triazin-5(4H)-yl)-N-((ls,3s)-3-hydroxy-3-methylcyclobutyl)acetamide], in experiment [1], the 50% inhibitory concentration (IC50) is 0.48 µM. In addition, in experiment [2], the 50% effective concentration (EC50) was more than 10 µM.
In the case of `CC(C)c1nn(CC(=O)Nc2ccc3nncn3c2)c(=O)c2c(N)c(C3CCC3)nn12` [Final Cpd 182], in experiment [1], the half-maximal inhibitory concentration (IC50) amounted to 0.1 µM. The compound also came in with a concentration for a half-maximal effect (EC50) in experiment [2] of more than 10 µM.
As to `CC(=O)c1cc2c(=O)n(CC(=O)Nc3ccncn3)nc(C(C)C)n2n1` [Final Cpd 183, 2-(2-acetyl-7-isopropyl-4-oxopyrazolo[1,5-d][1,2,4]triazin-5(4H)-yl)-N-(pyrimidin-4-yl)acetamide], the half-inhibitory concentration (IC50) in experiment [1] was 5.04 µM. Besides, the EC50 in experiment [2] was more than 10 µM.
Consider `CCc1nn(CC(=O)Nc2ccncn2)c(=O)c2cc(NC(C)=O)nn12` [Final Cpd 184, 2-(2-acetamido-7-ethyl-4-oxopyrazolo[1,5-d][1,2,4]triazin-5(4H)-yl)-N-(pyrimidin-4-yl)acetamide], for which the IC50 in experiment [1] is more than 10 µM. Besides, the half-maximal effective concentration (EC50) in experiment [2] was more than 10 µM.
For `CC(C)c1nn(CC(=O)Nc2ccncn2)c(=O)c2cc(C(C)O)nn12` (stereo not shown) [Final Cpd 185, 2-(2-(1-hydroxyethyl)-7-sopropyl-4-oxopyrazolo[1,5-d][1,2,4]triazin-5(4H)-yl)-N-(pyrimidin-4-yl)acetamide], in experiment [1], the IC50 is 4.11 µM. In experiment [2], the half-maximal effective concentration (EC50) was more than 10 µM.
As to `CC(C)c1nn(CC(=O)Nc2ccncn2)c(=O)c2cc(N)nn12` [Final Cpd 186, 2-(2-amino-7-isopropyl-4-oxopyrazolo[1,5-d][1,2,4]triazin-5(4H)-yl)-N-(pyrimidin-4-yl)acetamide], the IC50 in experiment [1] is more than 10 µM. Moreover, in experiment [2], the EC50 was more than 10 µM.
As for `CC(C)c1nn(CC(=O)N[C@@H]2CCCNC2)c(=O)c2cc(C3CC3)nn12` [Final Cpd 187, (R)-2-(2-cyclopropyl-7-isopropyl-4-oxopyrazolo[1,5-d][1,2,4]triazin-5(4H)-yl)-N-(piperidin-3-yl)acetamide], the IC50 in experiment [1] amounted to 0.8 µM. Further, the EC50 in experiment [2] is more than 10 µM.
With `CC(C)c1nn(CC(=O)N[C@H]2CNCC[C@H]2O)c(=O)c2cc(C3CC3)nn12` [Final Cpd 188], in experiment [1], the IC50 was found to be 0.74 µM. The compound also came in with a concentration giving a half-maximal response (EC50) in experiment [2] of more than 10 µM.
For the compound `CC(C)c1nn(CC(=O)N[C@@H]2CCCN(CC(F)(F)F)C2)c(=O)c2cc(C3CC3)nn12` [Final Cpd 189, (R)-2-(2-cyclopropyl-7-isopropyl-4-oxopyrazolo[1,5-d][1,2,4]triazin-5(4H)-yl)-N-(1-(2,2,2-trifluoroethyl)piperidin-3-yl)acetamide], the IC50 in experiment [1] came out at 1.16 µM. In experiment [2], the EC50 is more than 10 µM.
As to `CCN1CC[C@@H](O)[C@@H](NC(=O)Cn2nc(C(C)C)n3nc(C4CC4)cc3c2=O)C1` [Final Cpd 190, 2-(2-cyclopropyl-7-isopropyl-4-oxopyrazolo[1,5-d][1,2,4]triazin-5(4H)-yl)-N-((3S,4R)-1-ethyl-4-hydroxypiperidin-3-yl)acetamide], the IC50 in experiment [1] came out at 0.054 µM. Moreover, in experiment [2], the concentration giving a half-maximal response (EC50) was more than 10 µM.
In the case of `CC[C@]1(O)C[C@@H](NC(=O)Cn2nc(C(C)C)n3nc(C4CC4)cc3c2=O)C1` [Final Cpd 192, 2-(2-cyclopropyl-7-isopropyl-4-oxopyrazolo[1,5-d][1,2,4]triazin-5(4H)-yl)-N-((1r,3s)-3-ethyl-3-hydroxycyclobutyl)acetamide], the IC50 in experiment [1] worked out at 0.61 µM. Moreover, in experiment [2], the EC50 is more than 10 µM.
With `CC(C)c1nn(CC(=O)Nc2cc(C#N)c3nncn3c2)c(=O)c2cc(C3CC3)nn12` [Final Cpd 193, N-(8-cyano-[1,2,4]triazolo[4,3-a]pyridin-6-yl)-2-(2-cyclopropyl-7-isopropyl-4-oxopyrazolo[1,5-d][1,2,4]triazin-5(4H)-yl)acetamide], in experiment [1], the half-inhibitory concentration (IC50) came out at 0.98 µM. In experiment [2], this compound came in with an EC50 of more than 10 µM.
Turning to `COCCCc1nn(CC(=O)N[C@H]2C[C@@](C)(O)C2)c(=O)c2cc(C3CC3)nn12` [Final Cpd 194, 2-(2-cyclopropyl-7-(3-methoxypropyl)-4-oxopyrazolo[1,5-d][1,2,4]triazin-5(4H)-yl)-N-((ls,3s)-3-hydroxy-3-methylcyclobutyl)acetamide], the IC50 in experiment [1] was more than 10 µM. The compound also gave a concentration for a half-maximal effect (EC50) in experiment [2] of more than 10 µM.
`C[C@]1(O)C[C@@H](NC(=O)Cn2nc(CCCC(F)(F)F)n3nc(C4CC4)cc3c2=O)C1` [Final Cpd 195, 2-(2-cyclopropyl-4-oxo-7-(4,4,4-trifluorobutyl)pyrazolo[1,5-d][1,2,4]triazin-5(4H)-yl)-N-((ls,3s)-3-hydroxy-3-methylcyclobutyl)acetamide]: in experiment [1], the IC50 was more than 10 µM. In experiment [2], the EC50 is more than 10 µM.
Turning to `CCCCc1nn(CC(=O)N[C@H]2C[C@@](C)(O)C2)c(=O)c2cc(C3CC3)nn12` [Final Cpd 196], the IC50 in experiment [1] was more than 10 µM. In addition, in experiment [2], the EC50 was more than 10 µM.
In the case of `C[C@]1(O)C[C@@H](NC(=O)Cn2nc(CC3CCOC3)n3nc(C4CC4)cc3c2=O)C1` (stereo partly shown) [Final Cpd 197], the IC50 in experiment [1] was more than 10 µM. This compound showed an EC50 in experiment [2] of more than 10 µM.
With `C[C@]1(O)C[C@@H](NC(=O)Cn2nc(CC3CCC3)n3nc(C4CC4)cc3c2=O)C1` [Final Cpd 198], the IC50 in experiment [1] was more than 10 µM. In addition, the EC50 in experiment [2] was more than 10 µM.
Take `COc1ccc(-c2nn(CC(=O)N[C@H]3C[C@@](C)(O)C3)c(=O)c3cc(C4CC4)nn23)cc1` [Final Cpd 199, 2-(2-cyclopropyl-7-(4-methoxyphenyl)-4-oxopyrazolo [1,5-d] [1,2,4]triazin-5(4H)-yl)-N-((1 s,3 s)-3-hydroxy-3-methylcyclobutyl)acetamide]: the 50% inhibitory concentration (IC50) in experiment [1] is more than 10 µM. Moreover, the EC50 in experiment [2] was more than 10 µM.
Consider `C=CC(C)c1nn(CC(=O)N[C@H]2C[C@@](C)(O)C2)c(=O)c2cc(C3CC3)nn12` (stereo partly shown) [Final Cpd 200], for which the IC50 in experiment [1] was more than 10 µM. Further, in experiment [2], the 50% effective concentration (EC50) is more than 10 µM.
`CCC(C)c1nn(CC(=O)N[C@H]2C[C@@](C)(O)C2)c(=O)c2cc(C3CC3)nn12` (stereo partly shown) [Final Cpd 201]: the IC50 in experiment [1] was more than 10 µM. This compound came in with an EC50 in experiment [2] of more than 10 µM.
